The target of the assay is T1, P2X7 (UniProt Q99572).
T1 sequence (Q99572 1-595): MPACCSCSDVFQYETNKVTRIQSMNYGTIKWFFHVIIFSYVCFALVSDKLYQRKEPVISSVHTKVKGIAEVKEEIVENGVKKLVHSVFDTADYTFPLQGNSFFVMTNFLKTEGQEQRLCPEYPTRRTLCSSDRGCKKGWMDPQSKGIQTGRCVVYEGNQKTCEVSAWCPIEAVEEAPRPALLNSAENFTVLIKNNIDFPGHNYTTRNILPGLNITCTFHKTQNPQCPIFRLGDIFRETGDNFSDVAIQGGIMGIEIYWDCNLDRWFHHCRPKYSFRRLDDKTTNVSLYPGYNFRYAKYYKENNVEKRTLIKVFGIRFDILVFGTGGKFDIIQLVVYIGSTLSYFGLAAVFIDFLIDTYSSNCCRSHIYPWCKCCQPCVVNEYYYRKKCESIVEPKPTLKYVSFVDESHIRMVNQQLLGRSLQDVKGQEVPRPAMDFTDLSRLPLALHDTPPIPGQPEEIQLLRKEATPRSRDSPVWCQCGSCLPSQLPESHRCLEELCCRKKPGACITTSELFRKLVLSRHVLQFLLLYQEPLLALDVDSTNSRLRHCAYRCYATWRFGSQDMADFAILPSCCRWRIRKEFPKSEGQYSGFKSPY
The experiment in a line: P2X7 pKi of Table 1. It is filed as cell-based. As for the experimental part:
Intracellular Calcium Flux (FLIPR) Assay
Compound and Reagent Preparation
Stock solutions of compounds were prepared from powders as a 10 mM DMSO stock solution. These solutions were stored at RT during the two week period of these experiments to prevent freeze-thaw of the DMSO stocks. The DMSO stocks were added to the appropriate assay buffer at a concentration of 10 μM, and then diluted serially to the final concentrations that were tested. […] The aqueous solutions of compounds as well as ATP (Sigma A7699) and BzATP (Sigma B6396) were prepared fresh for each day of experiment.
1321N1 cells stably expressing the full length human P2X7 gene (1321N1-hP2X7) and HEK293 cells stably expressing the full length rat P2X7 gene (HEK293-rP2X7) were obtained from the Roche Cell Culture Facility. 1321N1-hP2X7 cells were grown in Dulbecco's Modified Eagle's Medium (DMEM) high glucose supplemented with 10% FBS and 250 μg/mL G418. HEK293-rP2X7 cells were grown in DMEM/F-12 supplemented with 10% FBS, 1 mM CaCl2, 2 mM MgCl2, 2 mM L-Glutamine and 500 μg/ml G418. Cells were split such that they never became >70% confluent.
Intracellular Calcium Flux (FLIPR)
On the day prior to the experiment, 1321N1-hP2X7 or HEK293-rP2X7 cells were released into suspension with calcium-free PBS+Versene and washed by centrifugation with calcium-free PBS to remove the Versene. Cells were resuspended in growth medium at a density of 2.5×10^5 cells/mL and seeded into black walled, clear bottom 96 well plates (50,000 cells/well) approximately 18 hr prior to intracellular calcium flux experiments.
On the day of the experiment, plates were washed with FLIPR buffer (calcium- and magnesium-free Hank's Balanced Salt Solution (HBSS) supplemented with 10 mM Hepes, 2.5 mM probenecid and 2 mM calcium chloride) using a BIO-TEK 96 channel plate washer and incubated with […] fluo-3 dye at 37° C. for one hr. The dye was then removed by plate washing and the cells were allowed to equilibrate for 20 min at room temperature with antagonist or vehicle (FLIPR buffer). Agonist (100 μM BzATP final concentration for hP2X7; 5 μM BzATP final concentration or rP2X7) was added online with the FLIPR and fluorescence measurements made at 1 sec intervals for 60 sec followed by 3 sec intervals for a further 4 min (5 min total). A final addition of 5 μM ionomycin was made and the maximal BzATP-evoked fluorescence normalized to the maximal ionomycin-evoked fluorescence.
As usually defined, the pKi is the negative decadic logarithm of the Ki, by convention in mol/L. Read a high pKi as a low Ki. Consider `COc1cc(NC(=O)C2=CNC(=O)C[C@@H]2c2cccc(F)c2)c(Br)cc1C` [Compound 29, (R)-4-(3-Fluoro-phenyl)-6-oxo-1,4,5,6-tetrahydro-pyridine-3-carboxylic acid(2-bromo-5-methoxy-4-methyl-phenyl)-amide], for which the pKi was found to be 6.405.
Then `COc1cc(Br)c(NC(=O)C2=CNC(=O)C[C@H]2c2cccc(F)c2)cc1OC` [Compound 30, (S)-4-(3-Fluoro-phenyl)-6-oxo-1,4,5,6-tetrahydro-pyridine-3-carboxylic acid(2-bromo-4,5-dimethoxy-phenyl)-amide], with 8.045.
Then `COc1cc(Br)c(NC(=O)C2=CN(C)C(=O)CC2c2ccc(F)cc2)cc1OC` (stereo not drawn) [Compound 31, 4-(4-Fluoro-phenyl)-1-methyl-6-oxo-1,4,5,6-tetrahydro-pyridine-3-carboxylic acid(2-bromo-4,5-dimethoxy-phenyl)-amide], with 6.525.
Then `COc1cc(C)c(NC(=O)C2=CNC(=O)CC2c2ccc(F)cc2)cc1OC` (stereo not drawn) [Compound 32, 4-(4-Fluoro-phenyl)-6-oxo-1,4,5,6-tetrahydro-pyridine-3-carboxylic acid(4,5-dimethoxy-2-methyl-phenyl)-amide], with 7.98; and `COc1cc(NC(=O)C2=CNC(=O)C[C@H]2c2cccc(F)c2)c(Br)cc1C` [Compound 33, (S)-4-(3-Fluoro-phenyl)-6-oxo-1,4,5,6-tetrahydro-pyridine-3-carboxylic acid(2-bromo-5-methoxy-4-methyl-phenyl)-amide], with 7.195.
Compound `COc1cc(Br)c(NC(=O)C2=CNC(=O)C[C@@H]2c2cccc(F)c2)cc1OC` [Compound 34, (R)-4-(3-Fluoro-phenyl)-6-oxo-1,4,5,6-tetrahydro-pyridine-3-carboxylic acid(2-bromo-4,5-dimethoxy-phenyl)-amide] returned a pKi of 6.9783.
The same measure for `COc1cc(NC(=O)C2=CNC(=O)CC2c2cccc(F)c2)c(Br)cc1F` (stereo not drawn) [Compound 35, 4-(3-Fluoro-phenyl)-6-oxo-1,4,5,6-tetrahydro-pyridine-3-carboxylic acid(2-bromo-4-fluoro-5-methoxy-phenyl)-amide]: 6.65.
`Cc1ccc(C)c(NC(=O)C2=CNC(=O)CC2c2ccc(F)cc2)c1` (stereo not drawn) [Compound 36, 4-(4-Fluoro-phenyl)-6-oxo-1,4,5,6-tetrahydro-pyridine-3-carboxylic acid(2,5-dimethyl-phenyl)-amide] displayed a pKi of 6.93.
The same measure for `Cc1cccc(NC(=O)C2=CNC(=O)CC2c2ccc(F)cc2)c1C` (stereo not drawn) [Compound 37, 4-(4-Fluoro-phenyl)-6-oxo-1,4,5,6-tetrahydro-pyridine-3-carboxylic acid(2,3-dimethyl-phenyl)-amide]: 7.12; for `Cc1ccc(Br)c(NC(=O)C2=CNC(=O)CC2c2ccc(F)cc2)c1` (stereo not drawn) [Compound 38, 4-(4-Fluoro-phenyl)-6-oxo-1,4,5,6-tetrahydro-pyridine-3-carboxylic acid(2-bromo-5-methyl-phenyl)-amide]: 6.87; for `COc1cc(Br)c(NC(=O)C2=CNC(=O)C[C@@H]2c2ccc(F)cc2)cc1OC` [Compound 39, (R)-4-(4-Fluoro-phenyl)-6-oxo-1,4,5,6-tetrahydro-pyridine-3-carboxylic acid(2-bromo-4,5-dimethoxy-phenyl)-amide]: 6.99.
The same measure for `COc1cc(Br)c(NC(=O)C2=CNC(=O)C[C@H]2c2ccc(F)cc2)cc1OC` [Compound 40, (S)-4-(4-Fluoro-phenyl)-6-oxo-1,4,5,6-tetrahydro-pyridine-3-carboxylic acid(2-bromo-4,5-dimethoxy-phenyl)-amide]: 7.895; for `COc1cc(C)c(NC(=O)C2=CNC(=O)C[C@@H]2c2ccc(F)cc2)cc1OC` [Compound 41, (R)-4-(4-Fluoro-phenyl)-6-oxo-1,4,5,6-tetrahydro-pyridine-3-carboxylic acid (4,5-dimethoxy-2-methyl-phenyl)-amide]: 7.225.
`COc1cc(C)c(NC(=O)C2=CNC(=O)C[C@H]2c2ccc(F)cc2)cc1OC` [Compound 42, (S)-4-(4-Fluoro-phenyl)-6-oxo-1,4,5,6-tetrahydro-pyridine-3-carboxylic acid (4,5-dimethoxy-2-methyl-phenyl)-amide] displayed a pKi of 7.993.
The same measure for `COc1cc(Br)c(NC(=O)C2=CN(C)C(=O)C[C@H]2c2ccc(F)cc2)cc1OC` [Compound 44, (S)-4-(4-Fluoro-phenyl)-1-methyl-6-oxo-1,4,5,6-tetrahydro-pyridine-3-carboxylic acid(2-bromo-4,5-dimethoxy-phenyl)-amide]: 5.875; for `COc1ccc(C)c(NC(=O)C2=CNC(=O)C[C@@H]2c2cccc(F)c2)c1` [Compound 45, (R)-4-(3-Fluoro-phenyl)-6-oxo-1,4,5,6-tetrahydro-pyridine-3-carboxylic acid(5-methoxy-2-methyl-phenyl)-amide]: 6.765.
The same measure for `COc1ccc(C)c(NC(=O)C2=CNC(=O)C[C@H]2c2cccc(F)c2)c1` [Compound 46, (S)-4-(3-Fluoro-phenyl)-6-oxo-1,4,5,6-tetrahydro-pyridine-3-carboxylic acid(5-methoxy-2-methyl-phenyl)-amide]: 7.695; for `COc1cc(C)c(NC(=O)C2=CNC(=O)C[C@H]2c2cccc(F)c2)cc1OC` [Compound 48, (S)-4-(3-Fluoro-phenyl)-6-oxo-1,4,5,6-tetrahydro-pyridine-3-carboxylic acid (4,5-dimethoxy-2-methyl-phenyl)-amide]: 7.7225; for `Cc1cc(C)c(Br)c(NC(=O)C2=CNC(=O)CC2c2ccc(F)cc2)c1` (stereo not drawn) [Compound 49, 4-(4-Fluoro-phenyl)-6-oxo-1,4,5,6-tetrahydro-pyridine-3-carboxylic acid(2-bromo-3,5-dimethyl-phenyl)-amide]: 7.48.
The same measure for `Cc1ccc(C(F)(F)F)cc1NC(=O)C1=CNC(=O)CC1c1cccc(F)c1` (stereo not drawn) [Compound 50, 4-(3-Fluoro-phenyl)-6-oxo-1,4,5,6-tetrahydro-pyridine-3-carboxylic acid(2-methyl-5-trifluoromethyl-phenyl)-amide]: 6.89; for `Cc1ccc(C(C)C)cc1NC(=O)C1=CNC(=O)CC1c1cccc(F)c1` (stereo not drawn) [Compound 51, 4-(3-Fluoro-phenyl)-6-oxo-1,4,5,6-tetrahydro-pyridine-3-carboxylic acid(5-isopropyl-2-methyl-phenyl)-amide]: 7.445; for `CCN(CC)S(=O)(=O)c1ccc(Cl)c(NC(=O)C2=CNC(=O)CC2c2cccc(F)c2)c1` (stereo not drawn) [Compound 52, 4-(3-Fluoro-phenyl)-6-oxo-1,4,5,6-tetrahydro-pyridine-3-carboxylic acid(2-chloro-5-diethylsulfamoyl-phenyl)-amide]: 6.02.
As for `O=C1CC(c2cccc(F)c2)C(C(=O)Nc2cccc3c2CCCC3)=CN1` (stereo not drawn) [Compound 53, 4-(3-Fluoro-phenyl)-6-oxo-1,4,5,6-tetrahydro-pyridine-3-carboxylic acid(5,6,7,8-tetrahydro-naphthalen-1-yl)-amide], the pKi was found to be 6.83.
Then `COc1cc(NC(=O)C2=CNC(=O)CC2c2ccc(F)cc2)c(C)cc1F` (stereo not drawn) [Compound 54, 4-(4-Fluoro-phenyl)-6-oxo-1,4,5,6-tetrahydro-pyridine-3-carboxylic acid(4-fluoro-5-methoxy-2-methyl-phenyl)-amide], with 7.02.

For the origin of these results see patent US8288552B2, “Dihydropyridone amidesas P2X7 modulators” (Roche Palo Alto LLC, priority 2008, dated 2012).
